Assay results reported in patent publication US7282504B2, “Kinase inhibitors” (Amgen Inc., priority 2000, dated 2007).

Columns and labels:
Type in all cases: biochemical
Fyn-1 = molecular target: T1, Fyn-1 (Homo sapiens, UniProt P06241); test: Kinase inhibition, 33P transfer to plate-bound substrate: Fyn-1
T1 construct: Kinases are expressed as either kinase domains or full-length constructs; made in house
Description: (§1) The inhibitor compounds described herein are screened in the following manner. Kinases suitable for use in the following protocol to determine kinase activity of the compounds described herein include, but are not limited to: Lck, Lyn, Src, Fyn, Syk, Zap-70, Itk, Tec, Btk, EGFR, ErbB2, Kdr, Flt-1, Flt-3, Tek, c-Met, InsR, and AKT.
(§2) Kinases are expressed as either kinase domains or full-length constructs fused to glutathione S-transferase (GST) or polyHistidine tagged fusion proteins in either E. coli or Baculovirus-High Five expression systems. They are purified to near homogeneity by affinity chromatography essentially as previously described (Lehr et al., 1996; Gish et al., 1995). In some instances, kinases are co-expressed or mixed with purified or partially purified regulatory polypeptides prior to measurement of activity.
(§3) Kinase activity and inhibition are measured essentially by established protocols (Braunwalder et al., 1996). Briefly, The transfer of ^33PO4 from ATP to the synthetic substrates poly(Glu, Tyr) 4:1 or poly(Arg, Ser) 3:1 attached to the bioactive surface of microtiter plates serves as the basis to evaluate enzyme activity. After an incubation period, the amount of phosphate transferred is measured by first washing the plate with 0.5% phosphoric acid, adding liquid scintillant, and then counting in a liquid scintillation detector. The IC50 is determined by the concentration of compound that causes a 50% reduction in the amount of ^33P incorporated onto the substrate bound to the plate.

PDGFRB = molecular target: T2, PDGFRB (Homo sapiens, UniProt P09619); test: Kinase inhibition, 33P transfer to plate-bound substrate: PDGFRB
T2 construct: Kinases are expressed as either kinase domains or full-length constructs; made in house
Description: as §1, §2, §3

Lck-2 = molecular target: T3, Lck-2 (Homo sapiens, UniProt P06239); test: Kinase inhibition, 33P transfer to plate-bound substrate: Lck-2
T3 construct: Kinases are expressed as either kinase domains or full-length constructs; made in house
Description: as §1, §2, §3

InsR-1 = molecular target: T4, InsR-1 (Homo sapiens, UniProt P06213); test: Kinase inhibition, 33P transfer to plate-bound substrate: InsR-1
T4 construct: Kinases are expressed as either kinase domains or full-length constructs; made in house
Description: as §1, §2, §3

Lck-1 = molecular target: T5, Lck-1 (Homo sapiens, UniProt P06239); test: Kinase inhibition, 33P transfer to plate-bound substrate: Lck-1
T5 construct: Kinases are expressed as either kinase domains or full-length constructs; made in house
Description: as §1, §2, §3

Tek-1 = molecular target: T6, Tek-1 (Homo sapiens, UniProt Q02763); test: Kinase inhibition, 33P transfer to plate-bound substrate: Tek-1
T6 construct: Kinases are expressed as either kinase domains or full-length constructs; made in house
Description: as §1, §2, §3

FGFR1-1 = molecular target: T7, FGFR1-1 (Homo sapiens, UniProt P11362); test: Kinase inhibition, 33P transfer to plate-bound substrate: FGFR1-1
T7 construct: Kinases are expressed as either kinase domains or full-length constructs; made in house
T7 sequence (P11362 22-822): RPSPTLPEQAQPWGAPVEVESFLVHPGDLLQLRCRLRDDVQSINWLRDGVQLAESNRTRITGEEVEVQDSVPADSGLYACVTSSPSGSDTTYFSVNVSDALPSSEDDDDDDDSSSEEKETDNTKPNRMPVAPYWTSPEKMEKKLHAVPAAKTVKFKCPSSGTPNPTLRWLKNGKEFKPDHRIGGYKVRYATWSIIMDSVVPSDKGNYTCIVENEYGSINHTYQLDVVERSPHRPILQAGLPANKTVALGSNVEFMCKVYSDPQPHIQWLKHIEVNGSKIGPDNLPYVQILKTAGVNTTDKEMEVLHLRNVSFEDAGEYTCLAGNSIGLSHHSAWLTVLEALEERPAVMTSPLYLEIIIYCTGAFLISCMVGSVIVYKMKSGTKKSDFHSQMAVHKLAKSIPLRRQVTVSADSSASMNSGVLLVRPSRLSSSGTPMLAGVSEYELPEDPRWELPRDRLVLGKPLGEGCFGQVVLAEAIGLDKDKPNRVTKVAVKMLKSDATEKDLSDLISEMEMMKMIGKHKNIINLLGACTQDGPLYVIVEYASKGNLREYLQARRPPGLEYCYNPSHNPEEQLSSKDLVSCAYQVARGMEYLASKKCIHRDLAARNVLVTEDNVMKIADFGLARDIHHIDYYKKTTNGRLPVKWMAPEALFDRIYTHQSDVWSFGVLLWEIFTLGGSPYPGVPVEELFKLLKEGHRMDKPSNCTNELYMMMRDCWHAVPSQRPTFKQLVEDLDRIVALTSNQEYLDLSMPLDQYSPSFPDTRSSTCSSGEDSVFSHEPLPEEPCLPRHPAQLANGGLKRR
Description: as §1, §2, §3

Lyn-1 = molecular target: T8, Lyn-1 (Homo sapiens, UniProt P07948); test: Kinase inhibition, 33P transfer to plate-bound substrate: Lyn-1
T8 construct: Kinases are expressed as either kinase domains or full-length constructs; made in house
Description: as §1, §2, §3

Flt1-1 = molecular target: T9, Flt1-1 (Homo sapiens, UniProt P17948); test: Kinase inhibition, 33P transfer to plate-bound substrate: Flt1-1
T9 construct: Kinases are expressed as either kinase domains or full-length constructs; made in house
Description: as §1, §2, §3

ErbB4-1 = molecular target: T10, ErbB4-1 (Homo sapiens, UniProt Q15303); test: Kinase inhibition, 33P transfer to plate-bound substrate: ErbB4-1
T10 construct: Kinases are expressed as either kinase domains or full-length constructs; made in house
Description: as §1, §2, §3

Akt3-1 = molecular target: T11, Akt3-1 (Homo sapiens, UniProt Q9Y243); test: Kinase inhibition, 33P transfer to plate-bound substrate: Akt3-1
T11 construct: Kinases are expressed as either kinase domains or full-length constructs; made in house
Description: as §1, §2, §3

Src-1 = molecular target: T12, Src-1 (Homo sapiens, UniProt P12931); test: Kinase inhibition, 33P transfer to plate-bound substrate: Src-1
T12 construct: Kinases are expressed as either kinase domains or full-length constructs; made in house
Description: as §1, §2, §3

Ret-1 = molecular target: T13, Ret-1 (Homo sapiens, UniProt P07949); test: Kinase inhibition, 33P transfer to plate-bound substrate: Ret-1
T13 construct: Kinases are expressed as either kinase domains or full-length constructs; made in house
Description: as §1, §2, §3

Met-1 = molecular target: T14, Met-1 (Homo sapiens, UniProt P08581); test: Kinase inhibition, 33P transfer to plate-bound substrate: Met-1
T14 construct: Kinases are expressed as either kinase domains or full-length constructs; made in house
Description: as §1, §2, §3

KDR-1 = molecular target: T15, KDR-1 (Homo sapiens, UniProt P35968); test: Kinase inhibition, 33P transfer to plate-bound substrate: KDR-1
T15 construct: Kinases are expressed as either kinase domains or full-length constructs; made in house
T15 sequence (P35968 20-1356): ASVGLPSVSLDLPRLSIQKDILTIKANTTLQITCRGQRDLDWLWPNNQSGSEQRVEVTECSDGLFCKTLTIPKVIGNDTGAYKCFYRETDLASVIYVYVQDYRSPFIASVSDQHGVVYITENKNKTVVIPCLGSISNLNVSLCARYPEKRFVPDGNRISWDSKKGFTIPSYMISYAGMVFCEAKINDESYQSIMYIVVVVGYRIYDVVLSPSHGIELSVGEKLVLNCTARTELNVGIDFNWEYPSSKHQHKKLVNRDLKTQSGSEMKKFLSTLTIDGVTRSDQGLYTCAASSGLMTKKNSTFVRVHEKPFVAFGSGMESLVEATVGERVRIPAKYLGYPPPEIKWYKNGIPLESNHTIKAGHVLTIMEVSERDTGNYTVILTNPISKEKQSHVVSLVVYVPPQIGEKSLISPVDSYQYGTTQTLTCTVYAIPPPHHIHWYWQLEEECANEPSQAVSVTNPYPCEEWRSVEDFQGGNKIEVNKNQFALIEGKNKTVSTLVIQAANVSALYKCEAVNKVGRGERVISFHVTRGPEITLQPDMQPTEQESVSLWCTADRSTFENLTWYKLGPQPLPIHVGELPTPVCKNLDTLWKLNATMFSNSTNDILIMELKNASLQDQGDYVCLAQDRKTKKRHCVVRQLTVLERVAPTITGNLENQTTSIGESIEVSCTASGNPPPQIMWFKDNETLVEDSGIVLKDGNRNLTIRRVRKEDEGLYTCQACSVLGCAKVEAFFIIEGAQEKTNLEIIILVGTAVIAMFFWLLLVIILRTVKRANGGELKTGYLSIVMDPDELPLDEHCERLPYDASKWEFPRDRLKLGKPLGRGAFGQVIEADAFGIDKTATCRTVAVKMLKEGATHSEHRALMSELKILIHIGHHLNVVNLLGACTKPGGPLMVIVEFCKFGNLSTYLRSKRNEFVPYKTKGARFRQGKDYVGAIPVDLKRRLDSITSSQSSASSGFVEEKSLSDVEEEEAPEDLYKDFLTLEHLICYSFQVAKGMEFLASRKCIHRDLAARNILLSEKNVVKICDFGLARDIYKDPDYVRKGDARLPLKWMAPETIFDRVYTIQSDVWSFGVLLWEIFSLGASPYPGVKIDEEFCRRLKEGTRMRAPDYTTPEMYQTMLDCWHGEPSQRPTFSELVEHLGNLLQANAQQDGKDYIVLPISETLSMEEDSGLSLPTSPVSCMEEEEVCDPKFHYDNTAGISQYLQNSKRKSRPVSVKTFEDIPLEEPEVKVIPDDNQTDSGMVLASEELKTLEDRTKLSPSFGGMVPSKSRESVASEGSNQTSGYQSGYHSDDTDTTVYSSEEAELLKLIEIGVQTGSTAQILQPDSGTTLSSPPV
Description: as §1, §2, §3

EGFR-1 = molecular target: T16, EGFR-1 (Homo sapiens, UniProt P00533); test: Kinase inhibition, 33P transfer to plate-bound substrate: EGFR-1
T16 construct: Kinases are expressed as either kinase domains or full-length constructs; made in house
T16 sequence (P00533 25-1210): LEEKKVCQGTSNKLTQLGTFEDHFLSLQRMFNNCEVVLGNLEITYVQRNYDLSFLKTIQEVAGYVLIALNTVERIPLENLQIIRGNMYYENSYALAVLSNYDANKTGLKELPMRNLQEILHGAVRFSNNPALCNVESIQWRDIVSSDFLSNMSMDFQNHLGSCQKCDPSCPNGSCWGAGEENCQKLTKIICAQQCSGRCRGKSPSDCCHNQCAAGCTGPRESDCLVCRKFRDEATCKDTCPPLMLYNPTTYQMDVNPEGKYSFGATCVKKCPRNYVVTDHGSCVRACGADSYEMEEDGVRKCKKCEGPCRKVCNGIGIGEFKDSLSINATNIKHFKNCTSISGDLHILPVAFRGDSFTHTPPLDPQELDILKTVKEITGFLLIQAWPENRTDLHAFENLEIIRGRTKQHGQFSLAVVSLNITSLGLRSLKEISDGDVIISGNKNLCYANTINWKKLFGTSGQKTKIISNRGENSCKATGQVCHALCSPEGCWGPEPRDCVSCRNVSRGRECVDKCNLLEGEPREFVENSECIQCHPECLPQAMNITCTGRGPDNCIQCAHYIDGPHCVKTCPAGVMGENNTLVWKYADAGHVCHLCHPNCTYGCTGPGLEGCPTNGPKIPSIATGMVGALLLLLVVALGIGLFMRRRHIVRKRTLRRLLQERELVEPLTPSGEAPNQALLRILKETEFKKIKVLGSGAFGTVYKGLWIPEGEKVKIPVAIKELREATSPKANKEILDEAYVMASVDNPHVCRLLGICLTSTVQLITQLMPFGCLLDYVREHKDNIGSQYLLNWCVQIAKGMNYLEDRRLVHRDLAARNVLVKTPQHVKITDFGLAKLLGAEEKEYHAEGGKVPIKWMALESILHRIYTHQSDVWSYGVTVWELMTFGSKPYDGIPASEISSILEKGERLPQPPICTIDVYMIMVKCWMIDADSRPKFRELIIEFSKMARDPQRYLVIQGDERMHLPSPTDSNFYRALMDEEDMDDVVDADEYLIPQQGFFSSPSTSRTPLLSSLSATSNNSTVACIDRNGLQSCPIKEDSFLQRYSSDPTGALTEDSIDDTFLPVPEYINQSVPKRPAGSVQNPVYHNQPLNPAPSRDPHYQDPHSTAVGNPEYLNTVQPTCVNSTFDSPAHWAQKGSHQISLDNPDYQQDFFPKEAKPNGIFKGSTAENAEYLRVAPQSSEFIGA
Description: as §1, §2, §3

Hck-1 = molecular target: T17, Hck-1 (Homo sapiens, UniProt P08631); test: Kinase inhibition, 33P transfer to plate-bound substrate: Hck-1
T17 construct: Kinases are expressed as either kinase domains or full-length constructs; made in house
Description: as §1, §2
Kinase activity and inhibition are measured essentially by established protocols (Braunwalder et al., 1996). Briefly, The transfer of ^33PO4 from ATP to the synthetic substrates poly(Glu, Tyr) 4:1 or poly(Arg, Ser) 3:1 attached to the bioactive surface of microtiter plates serves as the basis to evaluate enzyme activity. After an incubation period, the amount of phosphate transferred is measured by first washing the plate with 0.5% phosphoric acid, adding liquid scintillant, and then counting in a liquid scintillation detector. […]

Zap-1 = molecular target: T18, Zap-1 (Homo sapiens, UniProt P43403); test: Kinase inhibition, 33P transfer to plate-bound substrate: Zap-1
T18 construct: Kinases are expressed as either kinase domains or full-length constructs; made in house
T18 sequence (P43403 1-619): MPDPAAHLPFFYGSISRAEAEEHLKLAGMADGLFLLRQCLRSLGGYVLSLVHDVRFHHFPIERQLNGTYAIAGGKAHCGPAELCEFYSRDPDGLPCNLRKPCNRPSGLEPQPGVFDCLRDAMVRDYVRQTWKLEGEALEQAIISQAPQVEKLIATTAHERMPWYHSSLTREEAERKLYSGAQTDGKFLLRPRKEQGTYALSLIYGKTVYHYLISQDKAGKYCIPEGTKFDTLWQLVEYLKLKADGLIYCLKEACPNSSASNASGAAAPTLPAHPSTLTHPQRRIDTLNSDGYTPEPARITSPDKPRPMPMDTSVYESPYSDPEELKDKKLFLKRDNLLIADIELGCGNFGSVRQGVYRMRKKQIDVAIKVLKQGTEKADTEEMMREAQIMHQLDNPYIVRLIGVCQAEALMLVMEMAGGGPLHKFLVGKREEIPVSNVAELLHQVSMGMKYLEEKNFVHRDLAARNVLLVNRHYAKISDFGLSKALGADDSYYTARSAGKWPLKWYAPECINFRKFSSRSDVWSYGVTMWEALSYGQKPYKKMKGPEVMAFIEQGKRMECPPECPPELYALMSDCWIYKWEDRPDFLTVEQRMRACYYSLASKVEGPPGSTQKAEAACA
Description: as §1, §2, §3

Itk-1 = molecular target: T19, Itk-1 (Homo sapiens, UniProt Q08881); test: Kinase inhibition, 33P transfer to plate-bound substrate: Itk-1
T19 construct: Kinases are expressed as either kinase domains or full-length constructs; made in house
T19 sequence (Q08881 1-620): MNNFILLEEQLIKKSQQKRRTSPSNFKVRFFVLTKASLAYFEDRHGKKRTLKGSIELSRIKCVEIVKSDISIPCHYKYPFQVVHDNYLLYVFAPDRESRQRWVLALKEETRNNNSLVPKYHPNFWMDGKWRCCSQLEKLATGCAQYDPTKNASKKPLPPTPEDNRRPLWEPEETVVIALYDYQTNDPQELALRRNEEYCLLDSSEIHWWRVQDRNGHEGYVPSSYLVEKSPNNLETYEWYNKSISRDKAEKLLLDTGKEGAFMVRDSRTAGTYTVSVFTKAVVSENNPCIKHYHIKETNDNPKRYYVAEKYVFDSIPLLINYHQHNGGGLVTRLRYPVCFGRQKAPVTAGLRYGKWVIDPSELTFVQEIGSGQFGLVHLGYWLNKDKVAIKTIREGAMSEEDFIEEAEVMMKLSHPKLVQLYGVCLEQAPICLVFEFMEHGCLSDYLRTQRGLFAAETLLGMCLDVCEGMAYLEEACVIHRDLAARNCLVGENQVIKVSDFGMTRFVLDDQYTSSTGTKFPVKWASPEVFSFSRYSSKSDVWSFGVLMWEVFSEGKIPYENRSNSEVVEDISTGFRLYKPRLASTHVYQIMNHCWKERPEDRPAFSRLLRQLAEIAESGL
Description: as §1, §2, §3

ErbB2-1 = molecular target: T20, ErbB2-1 (Homo sapiens, UniProt P04626); test: Kinase inhibition, 33P transfer to plate-bound substrate: ErbB2-1
T20 construct: Kinases are expressed as either kinase domains or full-length constructs; made in house
Description: as §1, §2, §3

IGFR-1 = molecular target: T21, IGFR-1 (Homo sapiens, UniProt P08069); test: Kinase inhibition, 33P transfer to plate-bound substrate: IGFR-1
T21 construct: Kinases are expressed as either kinase domains or full-length constructs; made in house
T21 sequence (P08069 31-1367): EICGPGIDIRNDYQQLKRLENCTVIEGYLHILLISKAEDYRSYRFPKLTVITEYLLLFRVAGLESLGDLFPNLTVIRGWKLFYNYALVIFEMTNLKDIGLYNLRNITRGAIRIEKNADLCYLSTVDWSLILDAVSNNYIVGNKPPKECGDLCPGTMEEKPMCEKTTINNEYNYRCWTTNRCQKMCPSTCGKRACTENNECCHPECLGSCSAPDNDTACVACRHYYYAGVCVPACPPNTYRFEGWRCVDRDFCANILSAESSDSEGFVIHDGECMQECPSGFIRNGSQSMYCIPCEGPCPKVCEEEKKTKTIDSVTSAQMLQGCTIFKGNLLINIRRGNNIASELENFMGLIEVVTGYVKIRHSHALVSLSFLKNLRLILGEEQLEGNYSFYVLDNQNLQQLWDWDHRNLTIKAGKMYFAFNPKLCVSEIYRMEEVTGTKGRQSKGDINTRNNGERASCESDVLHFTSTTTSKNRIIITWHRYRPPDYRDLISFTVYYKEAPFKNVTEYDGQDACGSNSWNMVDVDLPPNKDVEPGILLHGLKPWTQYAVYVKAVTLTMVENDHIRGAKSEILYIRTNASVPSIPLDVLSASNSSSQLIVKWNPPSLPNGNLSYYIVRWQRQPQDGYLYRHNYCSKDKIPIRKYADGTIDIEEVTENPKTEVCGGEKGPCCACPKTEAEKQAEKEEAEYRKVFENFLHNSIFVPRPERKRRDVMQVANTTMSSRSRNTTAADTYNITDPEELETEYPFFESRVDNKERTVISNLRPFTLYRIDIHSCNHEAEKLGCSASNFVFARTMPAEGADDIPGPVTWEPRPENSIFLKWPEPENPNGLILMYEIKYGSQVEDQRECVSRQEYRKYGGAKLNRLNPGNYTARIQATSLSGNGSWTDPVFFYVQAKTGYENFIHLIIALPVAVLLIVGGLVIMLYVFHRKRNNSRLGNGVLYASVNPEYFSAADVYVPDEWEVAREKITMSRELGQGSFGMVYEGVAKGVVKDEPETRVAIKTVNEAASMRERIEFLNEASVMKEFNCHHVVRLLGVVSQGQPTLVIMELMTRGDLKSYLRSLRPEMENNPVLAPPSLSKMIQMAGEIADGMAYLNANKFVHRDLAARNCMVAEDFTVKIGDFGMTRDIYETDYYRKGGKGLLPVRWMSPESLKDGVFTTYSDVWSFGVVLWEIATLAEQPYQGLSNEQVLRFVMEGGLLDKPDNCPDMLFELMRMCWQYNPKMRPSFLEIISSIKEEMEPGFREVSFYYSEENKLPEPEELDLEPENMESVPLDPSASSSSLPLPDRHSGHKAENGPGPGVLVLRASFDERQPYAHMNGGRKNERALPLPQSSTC
Description: as §1, §2, §3

SMILES	IC50 (Fyn-1) [µM]	IC50 (PDGFRB) [µM]	IC50 (Lck-2) [µM]	IC50 (InsR-1) [µM]	IC50 (Lck-1) [µM]	IC50 (Tek-1) [µM]	IC50 (FGFR1-1) [µM]	IC50 (Lyn-1) [µM]	IC50 (Flt1-1) [µM]	IC50 (ErbB4-1) [µM]	IC50 (Akt3-1) [µM]	IC50 (Src-1) [µM]	IC50 (Ret-1) [µM]	IC50 (Met-1) [µM]	IC50 (KDR-1) [µM]	IC50 (EGFR-1) [µM]	IC50 (Zap-1) [µM]	IC50 (Itk-1) [µM]	IC50 (ErbB2-1) [µM]	IC50 (IGFR-1) [µM]	further results
COc1cc(Nc2nccc(-n3c(=O)[nH]c4ccccc43)n2)cc(OC)c1OC [Compound 3]	5 to 10	< 1.5	1.5 to 5	1.5 to 5	1.5 to 5	5 to 10	< 1.5	1.5 to 5	< 1.5	≥ 10	≥ 10	5 to 10	< 1.5	1.5 to 5	< 1.5	≥ 10	1.5 to 5	≥ 10	≥ 10	< 1.5	IC50 (Hck-1): ≥ 10 µM
COc1cc(Nc2nccc(Nc3cc(C(C)(C)C)n[nH]3)n2)cc(OC)c1OC [Compound 35]	1.5 to 5	1.5 to 5	< 1.5	< 1.5	< 1.5		5 to 10	< 1.5	5 to 10	5 to 10	≥ 10	< 1.5	1.5 to 5	< 1.5	1.5 to 5	5 to 10	≥ 10	1.5 to 5	≥ 10	< 1.5	
COc1cc(Nc2nccc(-n3ccc4ccccc43)n2)cc(OC)c1OC [Compound 31]	< 1.5	< 1.5	< 1.5		< 1.5	5 to 10	< 1.5	< 1.5	< 1.5	1.5 to 5	≥ 10	< 1.5		1.5 to 5	< 1.5	≥ 10	≥ 10	1.5 to 5			IC50 (Hck-1): ≥ 10 µM
COc1ccc(Nc2ccnc(Nc3ccc(OC)c(OC)c3)n2)cc1OC [Compound 56]	5 to 10	< 1.5	< 1.5	≥ 10	5 to 10		1.5 to 5		1.5 to 5		≥ 10	1.5 to 5	1.5 to 5	≥ 10	< 1.5	≥ 10	≥ 10	≥ 10	≥ 10	< 1.5	
